Literature values in paper PMC8617627, “Novel DYRK1A Inhibitor Rescues Learning and Memory Deficits in a Mouse Model of Down Syndrome” (Pharmaceuticals, 2021).
Read-outs that look alike come from different tables or passages of the source.

Tested on: 139-protein kinase panel
Conditions: no reference given, cited from earlier work

Structure (SMILES) | GINI-index (comparison value for harmine) | GINI-index (comparison value for staurosporine, with 10 uM ATP)
COc1ccc2c(c1)[nH]c1c(C)nccc12 [harmine] | 0.506 | 
CN[C@@H]1C[C@H]2O[C@@](C)([C@@H]1OC)n1c3ccccc3c3c4c(c5c6ccccc6n2c5c31)C(=O)NC4 [staurosporine] |  | 0.093
